The record followed here is patent publication US20090156545A1, “Substituted Phosphate Esters of Nucleoside Phosphonates” (priority 2005, published 2009).

Read-outs that look alike come from different tables or passages of the source.

What all share (type): cell-based
One assay relates to HIV-1Lai. Kind of assay: HIV-1Lai p24 reduction assay in MT-2 cells.
In the next assay the test system is MCMV. Kind of assay: MCMV plaque reduction assay in HFF cells. Particulars: read-out: MCMV, 50% effective concentration, EC50. Background: Plaque reduction counts the foci of infection that form in a cell layer.
In another assay the test system is HSV-2. In words: HSV-2 plaque reduction assay.
A further assay concerns Cowpox Brighton. Kind of assay: organism not typed. Particulars: read-out: Cowpox, 50% effective concentration, EC50.
Another assay deals with Vaccinia WR. Kind of assay: microbe, parasite or virus in culture. Particulars: read-out: Vaccinia, 50% effective concentration, EC50.
For another assay, the system named is HCMV AD169. Kind of assay: HCMV AD169 plaque reduction assay in HFF cells.
For assay [1], the system named is HSV-1. Kind of assay: HSV-1 plaque reduction assay.
Assay [2] has as its system HSV-1. Kind of assay: HSV-1 DNA reduction assay in MRC-5 cells.
[3] abbreviates: read-out: HCMV, 50% effective concentration, EC50.
The mark [4] stands for this setting: read-out: HSV-1, 50% effective concentration, EC50.

With “(2-(6amino-9H-purin-9-yl)ethoxy)methylphosphonic(3-hexadecyloxy)propylphosphonic)anhydride [HDP-phospho-ADV]”, the EC50 in the assay on HIV-1Lai (read-out: HIV-1, 50% effective concentration, EC50) worked out at 9 nM.
With `Nc1ncnc2c1ncn2CCOCP(=O)(O)O` [ADV, phosphonomethoxyethyadenine, reference compound], the EC50 in the assay with HIV-1Lai (Human immunodeficiency virus 1, MT2, read-out: HIV-1, 50% effective concentration, EC50) was determined as 1300 nM.
On to `Nc1ccn(C[C@@H](CO)OCP(=O)(O)O)c(=O)n1` [HPMPC, (S)-9-[3-hydroxy-2-(phosphonomethoxy)-propyl]cytosine, reference compound], for which the EC50 in the assay on MCMV worked out at 40 nM; with HSV-2 (Human alphaherpesvirus 2, read-out: HSV-2, 50% effective concentration, EC50), 10500 nM; with Cowpox Brighton (HFF), 42000 nM; in the assay on Vaccinia WR (Orthopoxvirus vaccinia, HFF), 31000 nM; in the assay with HCMV AD169 (Human betaherpesvirus 5, read-out: HCMV, 50% effective concentration, EC50), 1200 nM; in the assay with HSV-1 [1] (Human alphaherpesvirus 1, read-out: HSV-1, 50% effective concentration, EC50), 15000 nM. For the same compound, the EC50 in the assay on HSV-1 [2] (Human alphaherpesvirus 1, MRC5, read-out: HSV-1, 50% effective concentration, EC50) is 3300 nM.
As for `CCCCCCCCCCCCCCCCCCOCCOP(=O)(O)OP(=O)(O)CO[C@H](CO)Cn1ccc(N)nc1=O` [ODE-phospho-HPMPC], the EC50 in the assay with MCMV amounted to 30 nM; in the assay with Cowpox Brighton, 540 nM; with Vaccinia WR, 320 nM; with HCMV AD169 (setting [3]), 4 nM; with HSV-1 [2] (setting [4]), 0.02 nM.
With “(1-(4-aminooxopyrimidin-1(2H)-yl)-3-hydroxypropan-2-yloxy)methylphosphonic(3-hexadecyloxy)propylphosphoric) anhydride [HDP-phospho-HPMPC]”, the EC50 amounted to 350 nM in the assay with MCMV; 300 nM in the assay on HSV-2 (read-out: HSV-2, 50% effective concentration, EC50); 3900 nM in the assay on Cowpox Brighton; 2800 nM in the assay on Vaccinia WR; 100 nM with HCMV AD169 (setting [3]); 130 nM in the assay with HSV-1 [1] (setting [4]). For the same compound, in the assay with HSV-1 [2] (setting [4]), the EC50 is 60 nM.
